The conditions of data set [1]: acid for salt screen; cited from earlier work.
A short description of data set [2]: Solubility (appearance) and pH in saline. The data set is classed as physicochemical.
Data set [3] can be described thus: Approximate solubility by solvent aliquot addition, visual inspection, ambient temperature. The data set is classed as physicochemical. As to the method:
Weighed samples were treated with aliquots of designated solvent at ambient temperature. Complete dissolution of the test material was determined by visual inspection. Solubility was estimated based on the total solvent volume used to provide the complete dissolution. If complete dissolution was achieved by only one aliquot addition, the value is reported as “larger than”; if complete dissolution was not achieved, the value is reported as “less than”. The actual solubility may be greater than the value calculated because of the use of solvent aliquots that were too large or due to a slow rate of dissolution.

Data set [4] in a line: Stability in saline by HPLC psilocin peak area over time. The conditions noted are these: aqueous solution such as saline, 36 hours.
Data set [5] can be described thus: Observation of solubility samples after 1 day ambient storage (discoloration). It counts as physicochemical. An excerpt:
The solubility estimates were utilized to design experiments for the salt screen.

Data set [6] in a line: Drying studies, form by XRPD after vacuum drying. The data set is classed as physicochemical. The settings on record: RT, 1 d. As to the method:
XRPD patterns were collected with a PANalytical X'Pert PRO MPD or Empyrean diffractometer using an incident beam of Cu radiation produced using an Optix long, fine-focus source. An elliptically graded multilayer mirror was used to focus Cu Kα X-ray radiation through the specimen and onto the detector. Prior to the analysis, a silicon specimen (NIST SRM 640f) was analyzed to verify the observed position of the Si (111) peak is consistent with the NIST-certified position. A specimen of the sample was sandwiched between 3-μm-thick films and analyzed in transmission geometry. A beam-stop, short antiscatter extension, and antiscatter knife edge were used to minimize the background generated by air. Soller slits for the incident and diffracted beams were used to minimize broadening from axial divergence. Diffraction patterns were collected using a scanning position-sensitive detector (X'Celerator) located 240 mm from the specimen and Data Collector software v. 5.5.

We go through eight compounds from US20260085039A1 (priority 2022, published 2026).

≈ marks a conversion by molar mass, not a printed value. Entries after “also recorded” stand apart in the source; their conditions may differ. Read-outs that look alike come from different tables or passages of the source. Where only a bound is given, the exact number is not on record here.

Consider `O=C1O[C@H]([C@H](O)CO)C(O)=C1O` [Erythorbic acid], for which the pKa1 in data set [1] is on record as 2.1.

Consider `O=C1CC[C@@H](C(=O)O)N1` [Pyrogluatmic acid], for which the pKa1 in data set [1] is recorded as 3.32.

For `C/C=C/C=C/C(=O)O` [Sorbic acid], the pKa1 in data set [1] is 4.75.

A word on the solubility: it is how much of the substance goes into solution per volume. Regarding `CN(C)CCc1c[nH]c2cccc(O)c12` [psilocin, 4-hydroxy-N,N-dimethyltryptamine], the Appearance in solution entry was “Visually soluble, clear solution” in data set [2] (0.1 mg/mL in saline) and “Cloudy solution, not soluble” in data set [2] (1.0 mg/mL in saline). In addition, the values for the pH in data set [2] (0.1 mg/mL in saline) and in data set [2] (1.0 mg/mL in saline) were 9.053 and 9.395, respectively. In addition, the solubility in data set [3] (ACN, ambient temperature, estimated) was 9 mg/mL (≈ 44.1 mM); in data set [3] (EtOAc, ambient temperature, estimated), 8 mg/mL (≈ 39.2 mM); in data set [3] (ethanol, organic solvent or mixture, thermodynamic from solid, EtOH, ambient temperature, estimated, read-out: Solubility), under 1 mg/mL; in data set [3] (methanol, organic solvent or mixture, thermodynamic from solid, MeOH, ambient temperature, estimated, read-out: Solubility), under 1 mg/mL; in data set [3] (organic solvent or mixture, thermodynamic from solid, Acetone, ambient temperature, estimated, read-out: Solubility), 20 mg/mL (≈ 97.9 mM); in data set [3] (organic solvent or mixture, thermodynamic from solid, Dioxane, ambient temperature, estimated, read-out: Solubility), 18 mg/mL (≈ 88.1 mM). Besides, the solubility in data set [3] (other organic solvents (not water, not alcohols), organic solvent or mixture, thermodynamic from solid, read-out: Solubility) is at least 8 mg/mL; in data set [3] (tetrahydrofuran, organic solvent or mixture, thermodynamic from solid, THF, ambient temperature, estimated, read-out: Solubility), 18 mg/mL (≈ 88.1 mM); in data set [3] (water and alcohols) it was “poorly soluble”; in data set [3] (water, thermodynamic from solid, H20, ambient temperature, estimated, read-out: Solubility) it was under 1 mg/mL. The “decrease in the amount of psilocin present over time” value in data set [4] is given as at least 15%. The “Observation after 1 day ambient storage” value in data set [5] (ACN) is given as “No discoloration”; in data set [5] (Acetone), “No discoloration”; in data set [5] (Dioxane) it was “No discoloration”; in data set [5] (EtOAc), “No discoloration”; in data set [5] (EtOH), “No discoloration”; in data set [5] (H20) it was “Discoloration (black suspension)”. For the same compound, the “Observation after 1 day ambient storage” value is reported as “strong discoloration (black)” in data set [5] (H20, listed as Psilocin free base); “No discoloration” in data set [5] (MeOH); “No discoloration” in data set [5] (THF).

As for `O=C(O)C=C(CC(=O)O)C(=O)O` [Aconitic acid], the pKa1 in data set [1] is 2.80.

As to `CCCC(=O)O.CN(C)CCc1c[nH]c2cccc(O)c12` [Psilocin butyrate], in data set [2] (1.0 mg/mL in saline), the Appearance in solution result is “Visually soluble, clear solution” and the pH came out at 6.281.

For the compound `CN(C)CCc1c[nH]c2cccc(O)c12.O=C(O)c1ccccc1` [Benzoate Form A], in data set [6], the “XRPD Result after drying” value is reported as “maintains the same form; also recorded: Benzoate Form A”.

With `O=S(=O)(O)c1ccccc1` [Benzesulfonic acid], in data set [1], the pKa1 was 0.17.
